# Source: patent publication US12258355B2, “Probes for imaging huntingtin protein” (CHDI Foundation, Inc., priority 2014, dated 2025)
# Target: T1, Q46 protein aggregates (Homo sapiens, UniProt P42858)
# T1 construct: fused on or other part: GST at the N-terminus, cut off with thrombin before the test to start aggregation; The wells held aggregated Q46 without GST
# Assay: Q46 radioligand binding assay (RBA)
# Details: 10 nM ligand [3H3]MK-3328
# Experimental: Q46 Radioligand Binding Assay
# For radioligand binding assays (RBA) GST-Q46 protein was generated based on a previous publication (Scherzinger et al. Cell, Vol. 90, 549-558, Aug. 8, 1997). For experiments 33 μM GST-Q46 was incubated with 150 μg/mL thrombin in assay buffer (150 mM NaCl, 50 mM Tris pH 8.0) and 2 mM CaCl2 for 16 hours at 37° C. Aggregated Q46 was pelleted by centrifugation for 5 minutes at 13,000 rpm in a bench top centrifuge and re-dissolved in the same volume of assay buffer. Test compounds were prepared by titration in DMSO at 11 concentrations from 33 μM to 1 nM. For the RBA, Q46 protein aggregates and test compounds were pre-incubated in assay buffer for 20 minutes at room temperature, in 140 μL/well in a 96-well plate (pp, round bottom). Then, ligand was added in 10 μL/well and incubated for 60 minutes at 37° C. Final assay concentrations were 1 μM to 30 pM test compound, 5 μM Q46 protein (equivalent monomer concentration) and 10 nM ligand [^3H3]MK-3328 (Harrision et al., ACS Med. Chem. Lett., 2 (2011), pp 498-502). Samples were transferred onto GF/B filter plates and washed 2× with 200 μL PBS using a Filtermate Harvester. After drying filter plates for 1 hour at 37° C., the back of the plates were sealed with foil and 30 μL/well scintillation fluid (Packard MicroScint 40) added, incubated for 15 minutes in the dark and counted in a TopCount reader. For analysis, replicate data from independent assay plates were normalized towards 0% and 100% inhibition using control wells of vehicle (0% inhibition) and 3 μM unlabelled MK-3328 (100% inhibition). IC50 values were determined with a sigmoidal inhibition model with four variables (top, bottom, slope, IC50) in a global fit using the normalized replicate data.
# T1 sequence (P42858 with tags, fused parts or gaps with the stated changes, form open): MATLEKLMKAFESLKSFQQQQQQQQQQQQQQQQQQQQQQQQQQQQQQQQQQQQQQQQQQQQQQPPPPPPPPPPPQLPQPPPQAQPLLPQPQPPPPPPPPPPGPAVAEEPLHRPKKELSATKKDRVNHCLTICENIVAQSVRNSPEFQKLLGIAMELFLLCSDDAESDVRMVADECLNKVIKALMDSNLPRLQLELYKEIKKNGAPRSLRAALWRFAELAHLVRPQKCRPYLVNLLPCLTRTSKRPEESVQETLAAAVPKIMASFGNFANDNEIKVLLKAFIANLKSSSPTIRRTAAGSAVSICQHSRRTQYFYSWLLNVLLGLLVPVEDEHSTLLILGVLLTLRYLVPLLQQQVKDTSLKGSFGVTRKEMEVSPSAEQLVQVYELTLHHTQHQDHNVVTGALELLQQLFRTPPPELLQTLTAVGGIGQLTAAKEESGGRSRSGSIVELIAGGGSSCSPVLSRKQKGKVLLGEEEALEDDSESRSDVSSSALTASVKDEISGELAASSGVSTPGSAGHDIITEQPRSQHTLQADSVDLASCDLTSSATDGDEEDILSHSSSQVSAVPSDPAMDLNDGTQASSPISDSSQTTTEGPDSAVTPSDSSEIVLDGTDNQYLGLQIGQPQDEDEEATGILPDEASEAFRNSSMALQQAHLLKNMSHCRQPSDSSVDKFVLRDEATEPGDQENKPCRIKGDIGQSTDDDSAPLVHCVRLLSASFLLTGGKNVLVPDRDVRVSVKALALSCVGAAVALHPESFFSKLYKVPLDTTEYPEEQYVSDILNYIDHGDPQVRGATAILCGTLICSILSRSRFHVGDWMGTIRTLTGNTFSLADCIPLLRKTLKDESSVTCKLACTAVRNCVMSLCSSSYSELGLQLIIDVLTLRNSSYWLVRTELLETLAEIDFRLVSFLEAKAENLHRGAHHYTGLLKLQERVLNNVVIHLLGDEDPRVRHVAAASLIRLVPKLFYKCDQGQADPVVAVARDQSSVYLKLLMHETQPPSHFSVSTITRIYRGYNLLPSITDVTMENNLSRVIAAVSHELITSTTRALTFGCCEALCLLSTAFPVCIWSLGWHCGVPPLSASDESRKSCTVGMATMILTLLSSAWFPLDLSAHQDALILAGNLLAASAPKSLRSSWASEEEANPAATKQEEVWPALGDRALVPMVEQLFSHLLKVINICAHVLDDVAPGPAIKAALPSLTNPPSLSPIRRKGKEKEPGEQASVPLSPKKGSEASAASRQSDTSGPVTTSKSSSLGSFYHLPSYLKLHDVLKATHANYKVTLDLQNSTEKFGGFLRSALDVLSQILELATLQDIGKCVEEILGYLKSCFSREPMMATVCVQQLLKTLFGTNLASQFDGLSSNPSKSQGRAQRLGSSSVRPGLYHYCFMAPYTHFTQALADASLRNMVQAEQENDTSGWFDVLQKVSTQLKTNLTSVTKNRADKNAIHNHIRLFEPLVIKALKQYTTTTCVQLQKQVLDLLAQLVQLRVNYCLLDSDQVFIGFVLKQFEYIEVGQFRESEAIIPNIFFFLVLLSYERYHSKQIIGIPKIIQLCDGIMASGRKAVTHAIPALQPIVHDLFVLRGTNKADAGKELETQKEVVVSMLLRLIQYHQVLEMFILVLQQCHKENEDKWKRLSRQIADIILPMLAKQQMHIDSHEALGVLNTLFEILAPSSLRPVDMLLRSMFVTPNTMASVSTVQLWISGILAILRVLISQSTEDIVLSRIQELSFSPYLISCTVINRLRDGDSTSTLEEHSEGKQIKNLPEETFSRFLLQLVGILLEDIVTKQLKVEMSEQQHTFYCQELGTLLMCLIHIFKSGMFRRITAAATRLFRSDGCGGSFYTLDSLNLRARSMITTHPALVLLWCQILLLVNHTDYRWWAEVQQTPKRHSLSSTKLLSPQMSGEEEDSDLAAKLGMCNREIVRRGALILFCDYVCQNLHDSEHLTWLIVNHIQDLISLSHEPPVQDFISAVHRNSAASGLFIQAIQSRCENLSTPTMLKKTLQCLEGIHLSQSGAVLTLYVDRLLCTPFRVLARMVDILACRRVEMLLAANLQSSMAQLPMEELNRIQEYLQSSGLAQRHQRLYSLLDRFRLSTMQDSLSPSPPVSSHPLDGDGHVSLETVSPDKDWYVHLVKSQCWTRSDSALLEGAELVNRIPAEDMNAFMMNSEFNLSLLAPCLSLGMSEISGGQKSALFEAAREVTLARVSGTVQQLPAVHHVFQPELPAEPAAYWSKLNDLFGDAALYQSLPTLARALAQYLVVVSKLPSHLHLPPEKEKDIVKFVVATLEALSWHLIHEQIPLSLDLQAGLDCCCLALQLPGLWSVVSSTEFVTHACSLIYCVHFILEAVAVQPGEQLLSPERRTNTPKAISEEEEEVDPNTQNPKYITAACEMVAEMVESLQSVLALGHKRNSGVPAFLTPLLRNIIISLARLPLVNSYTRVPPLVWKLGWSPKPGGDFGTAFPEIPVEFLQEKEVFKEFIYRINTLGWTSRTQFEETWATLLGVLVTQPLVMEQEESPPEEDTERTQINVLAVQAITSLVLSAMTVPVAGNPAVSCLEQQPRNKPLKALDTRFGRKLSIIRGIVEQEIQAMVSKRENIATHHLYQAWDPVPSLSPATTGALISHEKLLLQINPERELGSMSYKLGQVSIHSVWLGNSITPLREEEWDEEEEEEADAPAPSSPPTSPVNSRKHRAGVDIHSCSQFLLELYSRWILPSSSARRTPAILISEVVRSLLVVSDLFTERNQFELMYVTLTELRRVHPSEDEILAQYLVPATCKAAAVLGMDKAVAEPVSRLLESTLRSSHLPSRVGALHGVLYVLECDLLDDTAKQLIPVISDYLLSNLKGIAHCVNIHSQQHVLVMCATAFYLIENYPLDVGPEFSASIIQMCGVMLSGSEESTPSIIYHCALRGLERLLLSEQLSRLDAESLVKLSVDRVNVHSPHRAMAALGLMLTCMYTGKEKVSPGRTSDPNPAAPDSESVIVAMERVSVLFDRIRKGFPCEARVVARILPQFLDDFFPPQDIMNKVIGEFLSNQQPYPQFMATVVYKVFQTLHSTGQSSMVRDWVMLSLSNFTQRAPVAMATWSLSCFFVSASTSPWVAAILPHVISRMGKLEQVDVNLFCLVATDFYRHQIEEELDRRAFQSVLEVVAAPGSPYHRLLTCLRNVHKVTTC
row,Structure (SMILES),IC50 [µM]
1,"COc1ccc(COc2ccc3oc(N4CCc5nc[nH]c5C4)nc3c2)nc1 [2-{3H,4H,5H,6H,7H-imidazo[4,5-c]pyridin-5-yl}-5-[(5-methoxypyridin-2-yl)methoxy]-1,3-benzoxazole]",< 0.1
2,"Cn1cc(-c2ccc(COc3cnc4oc(-c5cccnc5)nc4c3)nc2)cn1 [5-(1-methyl-1H-pyrazol-4-yl)-2-({[2-(pyridin-3-yl)-[1,3]oxazolo[5,4-b]pyridin-6-yl]oxy}methyl)pyridine]",< 0.1
3,"COc1ccc(COc2ccc3oc(N4CCn5ccnc5C4)nc3c2)nc1 [2-{5H,6H,7H,8H-imidazo[1,2-a]pyrazin-7-yl}-5-[(5-methoxypyridin-2-yl)methoxy]-1,3-benzoxazole]",< 0.1
4,N#Cc1cnccc1-c1cc2cc(OCc3cncnc3)ccc2o1 [4-[5-(pyrimidin-5-ylmethoxy)-1-benzofuran-2-yl]pyridine-3-carbonitrile],< 0.1
5,"c1cncc(-c2nc3cc(Nc4nnc5ccccn45)ccc3o2)c1 [2-(pyridin-3-yl)-N-{[1,2,4]triazolo[4,3-a]pyridin-3-yl}-1,3-benzoxazol-5-amine]",< 0.1
6,"COc1ccc(C(C)Oc2cnc3oc(-c4cccnc4)nc3c2)nc1 (stereo not drawn) [3-{6-[1-(5-methoxypyridin-2-yl)ethoxy]-[1,3]oxazolo[5,4-b]pyridin-2-yl}pyridine]",0.1 to 0.5
7,"COc1ccc(/C=C\c2cnc3oc(-c4cccnc4)nc3c2)cc1 [3-{6-[(Z)-2-(4-methoxyphenyl)ethenyl]-[1,3]oxazolo[5,4-b]pyridin-2-yl}pyridine]",< 0.1
8,"BrC1=C(c2cc3cc(OCc4cccnc4)ccc3o2)N2CCN=C2S1 [3-{[(2-{2-bromo-5H,6H-imidazo[2,1-b][1,3]thiazol-3-yl}-1-benzofuran-5-yl)oxy]methyl}pyridine]",< 0.1
9,"COc1ccc(C(=O)Nc2ccc3oc(-c4ccc(OC)cc4)nc3c2)cc1 [4-methoxy-N-[2-(4-methoxyphenyl)-1,3-benzoxazol-5-yl]benzamide]",< 0.1
10,"COc1ccc(/C=C/c2nc3cc(OCc4ccc(OC)cn4)ccc3o2)cc1 [2-[(E)-2-(4-methoxyphenyl)ethenyl]-5-[(5-methoxypyridin-2-yl)methoxy]-1,3-benzoxazole]",< 0.1
11,"COc1ccc(COc2ccc3oc([C@@H]4Cc5ccccc5O4)nc3c2)nc1 [2-[(2S)-2,3-dihydro-1-benzofuran-2-yl]-5-[(5-methoxypyridin-2-yl)methoxy]-1,3-benzoxazole]",< 0.1
12,"O=c1cnc(COc2ccc3oc(-c4cccnc4)nc3c2)c[nH]1 [5-({[2-(pyridin-3-yl)-1,3-benzoxazol-5-yl]oxy}methyl)-1,2-dihydropyrazin-2-one]",0.1 to 0.5
13,"COc1cnc(N2CCN(c3ccc4oc(-c5cccnc5)nc4c3)CC2)nc1 [5-[4-(5-methoxypyrimidin-2-yl)piperazin-1-yl]-2-(pyridin-3-yl)-1,3-benzoxazole]",< 0.1
14,"COc1ccc(COc2ccc3oc(C4Cc5ccccc5O4)nc3c2)nc1 (stereo not drawn) [2-(2,3-dihydro-1-benzofuran-2-yl)-5-[(5-methoxypyridin-2-yl)methoxy]-1,3-benzoxazole]",< 0.1
15,"COc1ccc(C(=O)Nc2ccc3oc(-c4cccnc4)nc3c2)cc1 [4-methoxy-N-[2-(pyridin-3-yl)-1,3-benzoxazol-5-yl]benzamide]",< 0.1
16,"COc1ccc(COc2ccc3oc(-c4ccc5occc5c4)nc3c2)nc1 [2-(1-benzofuran-5-yl)-5-[(5-methoxypyridin-2-yl)methoxy]-1,3-benzoxazole]",< 0.1
17,"c1cncc(COc2ccc3nc(-c4cccnc4)oc3c2)c1 [2-(pyridin-3-yl)-6-(pyridin-3-ylmethoxy)-1,3-benzoxazole]",< 0.1
18,"COc1ccc(COc2ccc3oc(N4CCn5cncc5C4)nc3c2)nc1 [2-{5H,6H,7H,8H-imidazo[1,5-a]pyrazin-7-yl}-5-[(5-methoxypyridin-2-yl)methoxy]-1,3-benzoxazole]",< 0.1
19,"COc1ncc(C(=O)Nc2ccc3oc(-c4cccc(C)c4)nc3c2)cn1 [2-methoxy-N-[2-(3-methylphenyl)-1,3-benzoxazol-5-yl]pyrimidine-5-carboxamide]",< 0.1
20,"Oc1cnc(-c2ccc3oc(-c4cccnc4)nc3c2)cn1 [5-[2-(pyridin-3-yl)-1,3-benzoxazol-5-yl]pyrazin-2-ol]",0.1 to 0.5
21,"COc1ccc(COc2cnc3oc(-c4cccnc4)nc3c2)nn1 [3-methoxy-6-({[2-(pyridin-3-yl)-[1,3]oxazolo[5,4-b]pyridin-6-yl]oxy}methyl)pyridazine]",< 0.1

# Now from value to compound:
row,IC50 [µM],Structure (SMILES)
1,0.1 to 0.5,"COc1ccc2c(=O)n(-c3ccc4oc(-c5cccnc5)nc4c3)ccc2c1 [6-methoxy-2-[2-(pyridin-3-yl)-1,3-benzoxazol-5-yl]-1,2-dihydroisoquinolin-1-one]"
2,< 0.1,"Cc1cncc(C(=O)Nc2ccc3oc(-c4cccnc4)nc3c2)c1 [5-methyl-N-[2-(pyridin-3-yl)-1,3-benzoxazol-5-yl]pyridine-3-carboxatmide]"
3,< 0.1,"COc1cccc(C(=O)Nc2ccc3oc(-c4cccnc4)nc3c2)n1 [6-methoxy-N-[2-(pyridin-3-yl)-1,3-benzoxazol-5-yl]pyridine-2-carboxamide]"
4,< 0.1,"O=C(Nc1ccc2oc(-c3cccnc3)nc2c1)c1cnc2ccccc2n1 [N-[2-(pyridin-3-yl)-1,3-benzoxazol-5-yl]quinoxaline-2-carboxamide]"
5,> 0.05,"COc1ccc(COc2ccc3oc(N4CCNCC4)nc3c2)nc1 [5-[(5-methoxypyridin-2-yl)methoxy]-2-(piperazin-1-yl)-1,3-benzoxazole]"
6,< 0.1,"COc1ccc(COc2ccc3oc(-c4ccncc4)nc3c2)nc1 [5-[(5-methoxypyridin-2-yl)methoxy]-2-(pyridin-4-yl)-1,3-benzoxazole]"
7,< 0.1,"Cn1nc(-c2nc3cc(OCc4ccc(O)cn4)ccc3o2)ccc1=O [6-{5-[(5-hydroxypyridin-2-yl)methoxy]-1,3-benzoxazol-2-yl}-2-methyl-2,3-dihydropyridazin-3-one]"
8,< 0.1,"COc1ccc(CNc2ccc3oc(-c4cccnc4)nc3c2)cc1 [N-[(4-methoxyphenyl)methyl]-2-(pyridin-3-yl)-1,3-benzoxazol-5-amine]"
9,< 0.1,"CN(C)CCCOc1ccc(COc2ccc3oc(-c4cccnc4)nc3c2)cc1 [dimethyl({3-[4-({[2-(pyridin-3-yl)-1,3-benzoxazol-5-yl]oxy}methyl)phenoxy]propyl})amine]"
10,< 0.1,"CNc1ccc(COc2ccc3oc(-c4cccnc4)nc3c2)nc1 [N-methyl-6-({[2-(pyridin-3-yl)-1,3-benzoxazol-5-yl]oxy}methyl)pyridin-3-amine]"
11,0.1 to 0.5,"COc1ccc(Nc2ccc3oc(-c4cccnc4)nc3c2)cc1 [N-(4-methoxyphenyl)-2-(pyridin-3-yl)-1,3-benzoxazol-5-amine]"
12,< 0.1,"COc1ccc(C(=O)Nc2ccc3oc(-c4ccc(=O)n(C)n4)nc3c2)nc1 [5-methoxy-N-[2-(1-methyl-6-oxo-1,6-dihydropyridazin-3-yl)-1,3-benzoxazol-5-yl]pyridine-2-carboxamide]"
13,< 0.1,"COc1ccc(COc2ccc3oc(-c4ccc(=O)n(C)n4)nc3c2)nc1 [6-{5-[(5-methoxypyridin-2-yl)methoxy]-1,3-benzoxazol-2-yl}-2-methyl-2,3-dihydropyridazin-3-one]"
14,< 0.1,"COc1ccc(COc2ccc3oc(-c4cn(C)c(=O)cn4)nc3c2)nc1 [5-{5-[(5-methoxypyridin-2-yl)methoxy]-1,3-benzoxazol-2-yl}-1-methyl-1,2-dihydropyrazin-2-one]"
15,< 0.1,"COc1ccc(C(=O)Nc2ccc3oc(-c4cccc(C)c4)nc3c2)cn1 [6-methoxy-N-[2-(3-methylphenyl)-1,3-benzoxazol-5-yl]pyridine-3-carboxamide]"
16,< 0.1,"COc1cnc(C(=O)Nc2ccc3oc(-c4cccc(C)c4)nc3c2)cn1 [5-methoxy-N-[2-(3-methylphenyl)-1,3-benzoxazol-5-yl]pyrazine-2-carboxamide]"
17,< 0.1,"COc1ccc(COc2ccc3oc(N4CCc5cccnc5C4)nc3c2)nc1 [7-{5-[(5-methoxypyridin-2-yl)methoxy]-1,3-benzoxazol-2-yl}-5,6,7,8-tetrahydro-1,7-naphthyridine]"
18,< 0.1,"COc1ccc(COc2ccc3oc(-c4ccnc(C)c4)nc3c2)nc1 [5-[(5-methoxypyridin-2-yl)methoxy]-2-(2-methylpyridin-4-yl)-1,3-benzoxazole]"
19,< 0.1,"Oc1ccc(COc2ccc3oc(-c4cccnc4)nc3c2)nc1 [6-({[2-(pyridin-3-yl)-1,3-benzoxazol-5-yl]oxy}methyl)pyridin-3-ol]"
20,0.1 to 0.5,"CC(C)(C)OC(=O)N1CCN(c2ccc3oc(-c4cccnc4)nc3c2)CC1 [tert-butyl 4-[2-(pyridin-3-yl)-1,3-benzoxazol-5-yl]piperazine-1-carboxylate]"
21,< 0.1,"COc1cncc(C(=O)Nc2ccc3oc(-c4cccnc4)nc3c2)c1 [5-methoxy-N-[2-(pyridin-3-yl)-1,3-benzoxazol-5-yl]pyridine-3-carboxamide]"
